What was measured:
Assay type in all cases: in vivo, Whistar rats
[1] = test system: rats kept on a biotin poor diet; assay: Experimental test 1: skin total lipids and hair sulphur content of rats on a biotin free diet with additives
From the text: According to the invention in fact the intimate distribution of the cystine within the mass of "soft" gelatin ensures a particularly favorable oral absorption, so that it is possible to reduce the doses of active substances with respect to the doses established by the prior art for the indicated pharmaceutical use. […] It is in fact known that the alimentary insufficiency of biotin induces, in the rat, the formation of a seborrhoic clinical condition, characterized by the increase of the sebaceous secretion and by the fall of hair.
In order to have a direct comparison, said rats have been successively treated, in different lots, -with diets to which was added respectively gelatin, cystine, gelatin-cystine in mechanical mixture and gelatin-cystine in soft spherules.
60 Whistar rats were employed of both sexes (30 males and 30 females) of the average weight of 150 g±9. Following the Kalopissis et al methodology (U.S. patent No. 3629452) 50 rats were kept on a biotin free diet for about 40 days until an evident seborrhoic clinical condition had developed, while the remaining 10 served as controls. After obtaining the desired clinical condition with the development of seborrhoea and loss of hair in various zones, the 50 rats were subdivided into five groups of 10 rats each and treated as follows: • 1st group: biotin free diet added with cystine; • 2nd group: biotin free diet added with gelatin; • 3rd group: biotin free diet added with cystine and gelatin in mechanical mixture; • 4th group: biotin free diet added with the mixture of gelatin/cystine melted in soft spherules; • 5th group: biotin free diet; • 6th group: control.
The diets were administered weekly in the cages of the rats in accurately weighed quantity so that the rats, kept in single cages, would ingest together with the feed, respectively: • 1st group: 84 mg per kg a week of cystine; • 2nd group: 203 mg per kg a week of gelatin from collagen; • 3rd group: 84 mg per kg a week of cystine and 203 mg per kg a week of gelatin; • 4th group: 280 mg per kg a week of the melted mixture of gelatin/cystine comprising 79.8 mg of cystine and 200.2 mg of gelatin.
After three weeks of treatment and after taking about 200 mg of hairs per rat, all the animals, included the controls, were sacrificed in a chloroform saturated environment in order to control their skin total lipids and in order to carry out possible histological and bioptic examinations. […]
The content of the total lipids was determined gravimetrically by the difference in weight of the sample before and after the extraction in a Soxhlet with acetone for 10 days and further drying out in vacuum over P205 and paraffin for 24 hours.

[2] = test system: normal rats, not subjected previously to a biotin poor diet; assay: Experimental test 2, lot II: composition of hair keratin of normal rats fed an enriched diet; conditions: 150 days of treatment
From the text: (§1) The elective stimulating action has also been verified on rats, performed especially by the gelatin cystine, in the keratinization processes of the hairy structures, verifying the average content of sulphur and cystine of the hair of rats kept on a normal diet and respectively of rats kept on a biotin poor diet, fed respectively only gelatin, only cystine and the association of gelatin-cystine both in the form of mechanical mixture in hard capsules, and in the form melted in soft spherules.
(§2) 110 Whistar rats of both sexes were employed (55 males plus 55 females) of the average weight of 150 g±9, divided in two lots of respectively 60 (lot I) and 50 (lot II) rats each. Following the Kalopissis and Manoussos methodology already quoted in test 1, 50 rats of lot I were kept on a biotin poor diet for about 40 days until the appearance of an evident seborrhoic clinical condition was induced, while the remaining 10 served as controls. After having obtained the desired clinical condition with the appearance of seborrhoea and loss of hair in several zones, the 60 rats were divided into six groups of 10 rats each and treated as follows:
The 50 rats of the second lot (normal rats, not subjected previously to a biotin poor diet), divided into five groups of 10 rats each, have been fed respectively:
The quantity of the feed placed in the cages was calculated in such a way that the rats would ingest the same quantity per kg of cystin, FU gelatin or gelatin-cystine already described above.
After 150 days of treatment the rats, under ether anaesthesia, were partially depilated with a razor.
(§3) A part of the hair (about 100 mg) of all the animals of the two groups, thoroughly washed with alcohol and ethyl ether and dried, are used for the determination of the total sulphur carried out by means of titration, according to the previously mentioned McDonald methodology.
(§4) After having hydrolyzed the hair of all the animals (about 800 mg) previously washed as already described, the quantity of cystine was determined using an autoanalyzer.
(§5) The extraction of the total keratins of the hairs was carried out using the urea-thioglycolate method as described in Gillespie J. M., Reis P. J. and Schinckel P. G. (1964) Aust. J. Biol. Sci. 17, 548.
(§6) After determining from one portion the total keratin (total proteins), the keratin fraction of high sulphur content is separated through alkylation with iodo acetate, dialysis and precipitation of the protein of low sulphur content with zinc acetate at pH 6. The total sulphur was determined on the protein fraction "rich in sulphur" according to the already mentioned McDonald methodology.

biotin poor rats = assay: Experimental test 2, lot I: composition of hair keratin (sulphur, cystine, proteins) of biotin poor rats
From the text: as §1, §2
The diets prepared specifically by a specialized firm were administered weekly in the cages of the rats, in accurately weighed quantity so that the rats, kept in single cages, would ingest together with the feed, respectively:
After six weeks of treatment and after having taken about 1 gof hair per rat, all the animals included the controls were sacrificed in a chloroform saturated atmosphere.
as §3, §4, §5, §6

[3] = in the biotin-poor rats, oral, P<0.05
[4] = hair of biotin poor rats, six weeks of treatment

N[C@@H](CSSC[C@H](N)C(=O)O)C(=O)O [Levo-cystine]
Total lipides % ([1]; dorsal skin, gravimetric after acetone extraction, biotin poor diet plus additive, three weeks of treatment, °=P<0.05 versus group VI (controls)): 38.1±2.987° %
increase of the total sulphur of the hair [1, 3]: about 7%
reduction of the total lipids of the skin [1, 3]: about 15%
Sulphur content (×g hair, %) ([1]; total sulphur by titration, percentage of dried weight of hair, biotin poor diet plus additive, three weeks of treatment): 2.48±0.066° %
"Sulphur rich" keratin % [2]: 25.9±0.5° %
Cystine content % [2]: 13.8±0.6° %
Sulphur contained in the "sulphur rich keratin" % [2]: 5.1±0.2° %
Sulphur content % [2]: 3.6±0.1° %
"Sulphur rich" proteic fraction % (biotin poor rats; [4]): 20±1%
Sulphur contained in the "sulphur rich" proteic fraction, % (biotin poor rats; [4]): 3.9±0.05%
Sulphur content % (biotin poor rats; [4]): 2.48±0.07° %
Cystine content % (biotin poor rats; hair of biotin poor rats, six weeks of treatment, g/100 g of hairs, autoanalyzer after hydrolysis): 9.3±0.6%
Total proteins % (biotin poor rats; total keratins of hair, urea-thioglycolate extraction, biotin poor rats, six weeks): 90±1%
